Experimental findings from US7473688B2, “Indolobenzazepine HCV NS5B inhibitors” (Bristol-Myers Squibb Company, priority 2005, dated 2009) are described below.

Assay [1] has as its system HCV replicon. Kind of assay: HCV replicon FRET assay. The format is cell-based. To be noted: Hepatitis C virus, FRET assay, read-out: EC50*. In outline:
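HCV replicon cells, with or without Renilla luciferase reporter, incubated with titrated compounds at 37 °C; Alamar blue read for cytotoxicity. NS3 protease activity read from lysates with 20 μM EDANS/DABCYL FRET peptide (340/490 nm, kinetic), or by Dual-Glo luciferase. Background from highest protease-inhibitor wells; EC50 = 50% signal reduction.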
For orientation: Replicon systems follow genome replication, usually without infectious particles.

The target in assay [2] is T1, HCV NS5B (Hepatitis C virus genotype 1b, UniProt Q9WMX2).
T1 construct: The protein was expressed with an 18 amino acid C-terminal truncation to enhance the solubility; made in house; host or cells: E. coli BL21 (DE3), pET21a
T1 sequence (Q9WMX2 2420-2992): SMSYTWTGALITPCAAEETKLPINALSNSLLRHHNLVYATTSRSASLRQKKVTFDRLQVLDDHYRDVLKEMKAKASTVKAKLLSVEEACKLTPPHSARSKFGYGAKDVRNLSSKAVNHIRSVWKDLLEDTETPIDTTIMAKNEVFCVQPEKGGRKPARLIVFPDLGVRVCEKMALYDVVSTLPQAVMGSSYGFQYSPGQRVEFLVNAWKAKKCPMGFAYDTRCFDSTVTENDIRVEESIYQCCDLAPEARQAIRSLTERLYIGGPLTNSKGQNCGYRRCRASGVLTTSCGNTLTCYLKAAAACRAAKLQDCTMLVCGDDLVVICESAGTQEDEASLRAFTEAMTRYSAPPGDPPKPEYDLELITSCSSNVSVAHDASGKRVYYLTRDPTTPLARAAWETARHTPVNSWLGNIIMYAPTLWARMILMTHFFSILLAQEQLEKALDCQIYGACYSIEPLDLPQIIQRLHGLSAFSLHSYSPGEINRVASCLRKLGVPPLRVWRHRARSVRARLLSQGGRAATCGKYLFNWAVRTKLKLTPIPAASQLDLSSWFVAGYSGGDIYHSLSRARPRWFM
Kind of assay: HCV NS5B RdRp enzyme assay (preincubation protocol). The assay is classed as biochemical. The following applies: read-out: IC50*. In outline: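 C-terminally truncated (Δ18) genotype 1b NS5B from E. coli, 14 nM, added to compound, then polyA template (0.2 nM), 3H-UTP (0.29 μM) and oligo-dT12 primer precaptured on streptavidin SPA beads. 4 h at 30 °C, pH 7.5, 2% DMSO; SPA readout; IC50 from seven concentrations by logistic fit.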

Read-outs that look alike come from different tables or passages of the source.

In general, EC50 refers to the concentration giving half of the maximal effect. Broadly, the IC50 is the midpoint of a concentration-inhibition curve. `COc1ccc2c(c1)CC(NC(=O)N(C)CC(=O)N(C)C)Cn1c-2c(C2CCCCC2)c2ccc(C(=O)NS(=O)(=O)N(C)C)cc21` (stereo not shown): in assay [1] (Table 1a), the concentration for a half-maximal effect (EC50) was 30 to 1000 nM. In addition, the IC50 in assay [2] (Table 1a) is 10 to 1000 nM.

`COc1ccc2c(c1)C=C(C(=O)N(C)C1CCOCC1)Cn1c-2c(C2CCCCC2)c2ccc(C(=O)NS(=O)(=O)N(C)C)cc21`: in assay [1] (Table 1a), the half-maximal effective concentration (EC50) was > 120 nM. Also, in assay [2] (Table 1a), the IC50 lay within 10 to 1000 nM.

Consider `COc1ccc2c(c1)C=C(C(=O)NCc1nccs1)Cn1c-2c(C2CCCCC2)c2ccc(C(=O)NS(=O)(=O)N(C)C)cc21`, for which, in assay [1] (Table 1a), the half-maximal effective concentration (EC50) is 30 to 1000 nM. For the same compound, in assay [2] (Table 1a), the 50% inhibitory concentration (IC50) is 10 to 1000 nM.

As for `COc1ccc2c(c1)C=C(C(=O)N(CC(=O)O)CC(=O)O)Cn1c-2c(C2CCCCC2)c2ccc(C(=O)NS(=O)(=O)N(C)C)cc21`, the EC50 in assay [1] (Table 1b) was > 10000 nM. The 50% inhibitory concentration (IC50) in assay [2] (Table 1b) was in the range of 20 to 1000 nM.

Turning to `COc1ccc2c(c1)C=C(C(=O)N(C)[C@H](C(=O)O)C(C)C)Cn1c-2c(C2CCCCC2)c2ccc(C(=O)NS(=O)(=O)N(C)C)cc21`, the EC50 in assay [1] (Table 1b) fell in the range of 30 to 1000 nM. Besides, the half-maximal inhibitory concentration (IC50) in assay [2] (Table 1b) was < 20 nM.

In the case of `CCN(C)C(=O)NC1Cc2cc(OC)ccc2-c2c(C3CCCCC3)c3ccc(C(=O)NS(=O)(=O)N(C)C)cc3n2C1` (stereo not shown), the EC50 in assay [1] (Table 1b) was in the range of 30 to 1000 nM. In addition, the IC50 in assay [2] (Table 1b) lay within 20 to 1000 nM.

`COc1ccc2c(c1)CC(NC(=O)N(C)CCN(C)C)Cn1c-2c(C2CCCCC2)c2ccc(C(=O)NS(=O)(=O)N(C)C)cc21` (stereo not shown): the EC50 in assay [1] (Table 1b) was 30 to 1000 nM. In addition, the IC50 in assay [2] (Table 1b) lay in the range of 20 to 1000 nM.

Take `COc1ccc2c(c1)CC(NC(N)=O)Cn1c-2c(C2CCCCC2)c2ccc(C(=O)NS(=O)(=O)N(C)C)cc21` (stereo not shown): the EC50 in assay [1] (Table 1b) fell in the range of 30 to 1000 nM. Further, in assay [2] (Table 1b), the IC50 was 20 to 1000 nM.

For `COCCNC(=O)CN(C)C(=O)NC1Cc2cc(OC)ccc2-c2c(C3CCCCC3)c3ccc(C(=O)NS(=O)(=O)N(C)C)cc3n2C1` (stereo not shown), in assay [1] (Table 1b), the concentration for a half-maximal effect (EC50) fell in the range of 30 to 1000 nM. Moreover, the IC50 in assay [2] (Table 1b) was 20 to 1000 nM.

`COc1ccc2c(c1)CC(NC(=O)N(C)CC(=O)NC(C)C)Cn1c-2c(C2CCCCC2)c2ccc(C(=O)NS(=O)(=O)N(C)C)cc21` (stereo not shown): in assay [1] (Table 1b), the concentration for a half-maximal effect (EC50) lay within 30 to 1000 nM. Moreover, in assay [2] (Table 1b), the IC50 was 20 to 1000 nM.

On to `COc1ccc2c(c1)CC(NC(=O)N(C)CC1CCOCC1)Cn1c-2c(C2CCCCC2)c2ccc(C(=O)NS(=O)(=O)N(C)C)cc21` (stereo not shown), for which the half-maximal effective concentration (EC50) in assay [1] (Table 1b) is 30 to 1000 nM. Moreover, the 50% inhibitory concentration (IC50) in assay [2] (Table 1b) was in the range of 20 to 1000 nM.

As for `COc1ccc2c(c1)CC(NC(=O)N(C)CC1CCCCO1)Cn1c-2c(C2CCCCC2)c2ccc(C(=O)NS(=O)(=O)N(C)C)cc21` (stereo not shown), in assay [1] (Table 1b), the concentration giving a half-maximal response (EC50) lay within 30 to 1000 nM. The half-inhibitory concentration (IC50) in assay [2] (Table 1b) lay within 20 to 1000 nM.

As to `COc1ccc2c(c1)CC(NC(=O)N(C)CC(N)=O)Cn1c-2c(C2CCCCC2)c2ccc(C(=O)NS(=O)(=O)N(C)C)cc21` (stereo not shown), the 50% effective concentration (EC50) in assay [1] (Table 1b) lay in the range of 30 to 1000 nM. The IC50 in assay [2] (Table 1b) was 20 to 1000 nM.

In the case of `COc1ccc2c(c1)CC(NC(=O)N1CCC(C(N)=O)C1)Cn1c-2c(C2CCCCC2)c2ccc(C(=O)NS(=O)(=O)N(C)C)cc21` (stereo not shown), in assay [1] (Table 1b), the EC50 was in the range of 30 to 1000 nM. Besides, the IC50 in assay [2] (Table 1b) was 20 to 1000 nM.

With `COc1ccc2c(c1)CC(NC(=O)N(C)CC(=O)NC1CC1)Cn1c-2c(C2CCCCC2)c2ccc(C(=O)NS(=O)(=O)N(C)C)cc21` (stereo not shown), the EC50 in assay [1] (Table 1b) is 30 to 1000 nM. Further, the IC50 in assay [2] (Table 1b) lay within 20 to 1000 nM.

Take `COc1ccc2c(c1)CC(NC(=O)N1CC(OC)C1)Cn1c-2c(C2CCCCC2)c2ccc(C(=O)NS(=O)(=O)N(C)C)cc21` (stereo not shown): the EC50 in assay [1] (Table 1b) lay within 30 to 1000 nM. In assay [2] (Table 1b), the concentration for half-maximal inhibition (IC50) was 20 to 1000 nM.

Turning to `COc1ccc2c(c1)CC(NC(=O)N(C)CC(=O)N1CCN(C)CC1)Cn1c-2c(C2CCCCC2)c2ccc(C(=O)NS(=O)(=O)N(C)C)cc21` (stereo not shown), the 50% effective concentration (EC50) in assay [1] (Table 1b) lay in the range of 30 to 1000 nM. The concentration for half-maximal inhibition (IC50) in assay [2] (Table 1b) fell in the range of 20 to 1000 nM.

For the compound `COc1ccc2c(c1)CC(NC(=O)N1CC(O)C1)Cn1c-2c(C2CCCCC2)c2ccc(C(=O)NS(=O)(=O)N(C)C)cc21` (stereo not shown), in assay [1] (Table 1b), the EC50 was 30 to 1000 nM. Besides, the IC50 in assay [2] (Table 1b) was 20 to 1000 nM.

`COc1ccc2c(c1)CC(NC(=O)N1C[C@@H](C)N(C)[C@@H](C)C1)Cn1c-2c(C2CCCCC2)c2ccc(C(=O)NS(=O)(=O)N(C)C)cc21` (stereo partly shown): the EC50 in assay [1] (Table 1b) fell in the range of 30 to 1000 nM. Also, the 50% inhibitory concentration (IC50) in assay [2] (Table 1b) lay in the range of 20 to 1000 nM.

Consider `COc1ccc2c(c1)C=C(C(=O)N1CCOC(CF)C1)Cn1c-2c(C2CCCCC2)c2ccc(C(=O)NS(=O)(=O)N(C)C)cc21` (stereo not shown), for which, in assay [1] (Table 1b), the EC50 is 30 to 1000 nM. The half-maximal inhibitory concentration (IC50) in assay [2] (Table 1b) lay in the range of 20 to 1000 nM.

Turning to `COc1cccc2c1C=C(C(=O)N1CCOC(CF)C1)Cn1c-2c(C2CCCCC2)c2ccc(C(=O)NS(=O)(=O)N(C)C)cc21` (stereo not shown), the EC50 in assay [1] (Table 1b) lay within 30 to 1000 nM. The 50% inhibitory concentration (IC50) in assay [2] (Table 1b) was in the range of 20 to 1000 nM.

On to `COc1ccc2c(c1)C=C(C(=O)N1CCN(c3cnccn3)CC1)Cn1c-2c(C2CCCCC2)c2ccc(C(=O)NS(=O)(=O)N(C)C)cc21`, for which the EC50 in assay [1] (Table 1b) is 30 to 1000 nM. Besides, in assay [2] (Table 1b), the IC50 lay in the range of 20 to 1000 nM.

Take `COc1ccc2c(c1)CC(C(=O)N1CCN(C(=O)C(C)(C)O)CC1)Cn1c-2c(C2CCCCC2)c2ccc(C(=O)NS(=O)(=O)N(C)C)cc21` (stereo not shown): in assay [1] (Table 1b), the EC50 lay in the range of 30 to 1000 nM. Also, the concentration for half-maximal inhibition (IC50) in assay [2] (Table 1b) lay within 20 to 1000 nM.
